The target in series [1] is T1, human HPK1 (Homo sapiens, UniProt Q92918). Put plainly: HPK1 protein degradation assay (WB) in RAMOS cell line. It is filed as cell-based. The arrangement: The RAMOS cell line was selected as the degradation cell line; endogenous in cells; host or cells: RAMOS. Conditions: RAMOS cells, 16 h, Western blot. Here is the method:
Degradation of HPK1 proteins and DC50/Dmax were determined by the WB method in order to evaluate the in vitro degradative ability of the compound.
The RAMOS cell line was selected as the degradation cell line. Incubation Conditions: RMPI 1640 culture medium supplemented with 10% FBS, 37° C., 5% CO2.
• (1) Plating cells: in a 6 cm dish with 4 ml of the culture medium, cells plated at 2×10^6 cells/dish. • (2) Drug addition: the compound (stock solution concentration: 10 mM) was diluted with DMSO in a dilution plate, with a maximum starting concentration of 10 μM and 7 concentration gradient points (3-fold dilution). 4 μl of each diluted solution was taken, added to a dish, and incubated for 16 h. • (3) Cells were harvested, added with a lysis buffer, and centrifuged at 12000 rpm/min for 20 min. The supernatant was collected. After quantification using a BCA quantification kit, 5× loading buffer was added to denature for 10 min. • (4) 10 μg of denatured protein was added to the SDS-PAGE gel. After electrophoresis and membrane transfer, the plate was blocked with 5% BSA for 1 h, incubate with the primary antibody at 4° C. overnight. After washing off the primary antibody, the secondary antibody was added, incubated at room temperature for 1 h, and washed off.
Imaging: the membranes were scanned with a two-color fluorescence imaging system.

A short description of series [2]: Pharmacokinetics of single administration in mice. It is filed as in vivo, Balb/c mice. Conditions: for clearance / half-life / AUC / bioavailability / Cmax: female, Balb/c, mouse, plasma; for AUC: read-out: AUC; for bioavailability: po 10 mg/kg vs iv 2 mg/kg; for Cmax: read-out: Cmax. Also noted: Vz: unit not given here. Here is the method:
Female Balb/c mice (weighing 18-22 g) were fasted overnight prior to the experiment. The test compound was dissolved in the vehicle, DMSO:PEG400:30% captisol:HCl=5:20:70:5 (v/v/v/v), and administered by single oral gavage at a dose of 10 mg/kg or by intravenous injection at a dose of 2 mg/kg. Blood samples were collected from the orbital venous plexus at 15 minutes, 30 minutes, and 1, 2, 4, 6, 8, and 24 h after administration. Approximately 0.08 mL of blood was collected at each time point and placed in a 1.5 mL centrifuge tube containing EDTA-2K anticoagulant. Blood samples were centrifuged (3200 g, 10 min, 4° C.) within 2 h to obtain plasma samples. Plasma samples were frozen at −70° C. to −80° C. in an ultra-low temperature freezer prior to processing. Before sample processing, the plasma samples were taken out of the freezer. After thawing at room temperature, 20 μL of each plasma sample was added into a 96-well plate, and then 120 μL of acetonitrile containing an internal standard was added to precipitate proteins. […] The supernatant was taken and mixed with an equal volume of 0.1% aqueous formic acid solution for LC-MS/MS analysis.

Series [3] has as its system IL2 activation in human PBMC. The experiment in a line: IL2 activity assay (ELISA) in human PBMC. Conditions: CD3/CD28 antibody, 24 h. In kind it is cell-based. Here is the method: The compound was diluted with DMSO in a dilution plate, with a maximum starting concentration of 10 μM, 8 concentration gradient points (3-fold dilution), and then added to the 96-well plate along with the addition of 5 µg/ml CD28 antibody. Incubation was performed for 24 h. • (3) The ELISA plate was washed twice with PBS, and an ELISA dilution was added at 100 µl/well. Then 100 μl of the standard and the incubated samples obtained in step 2 were added separately, and incubated for 2 h at room temperature. • (4) Each well was washed 3 times by adding with 400 μl washing buffer per well, and was finally blotted to dryness with a clean absorbent paper. • (5) 200 μl of the IL2 conjugate was added per well, covered with a fresh tape, and incubated for 2 h at room temperature. Step (4) was repeated. • (6) 200 μl of the substrate was added per well under the protection from light. The plate was incubated at room temperature for 20 min. • (7) 50 μL of a stop solution was added per well. The color of the wells should be from blue to yellow. Signals at […] were read by a microplate reader, and the signal intensity was used to characterize the activity level of IL2. EC50 values were obtained by fitting using the Prism software.
(In an ELISA, binding on a coated surface is turned into a signal by an enzyme label.)

The target in series [4] is T1, human HPK1. The experiment in a line: Assay of in vitro HPK1 enzymatic activity (ADP-Glo). In kind it is biochemical. To be noted: 7 nM kinase, 20 uM ATP. The procedure: Compounds were evaluated for their ability to inhibit human HPK1 by IC50 determination using the ADP-Glo method to measure the kinase activity.
Buffer conditions of the enzyme: 50 mM Hepes (pH 7.5), 10 mM MgCl2, 1 mM EGTA, 0.01% Brij35, 2 mM DTT.
Preparation of the Kinase and substrate mixture: the working concentration of the kinase in the HPK1 reaction solution was 7 nM and the working concentration of ATP was 20 uM.
The compound was diluted with DMSO in a dilution plate, with a maximum starting concentration of 1 uM and 10 concentration gradient points (4-fold dilution).
Each of the above 10 concentration gradient points of the compound was then diluted 50-fold into the kinase reaction buffer and shaken on a shaker for 20 min. The kinase was prepared in an enzyme reaction buffer and 2 μl of the HPK1 kinase was added per well of the reaction plate at a HPK1 kinase concentration of 7 nM.
1 μl of diluted compound in the buffer was added per well, and the plate was sealed with a plate sealing film, centrifuged at 1000 g for 30 seconds, and left at room temperature for 10 minutes. An ATP solution was prepared with an enzyme reaction buffer and 2 μl of the ATP solution was added to the reaction plate (the working concentration of ATP was 20 uM). The plate was sealed with a plate sealing film, centrifuged at 1000 g for 30 seconds, and reacted at room temperature for 60 minutes. 4 μL of ADP-Glu was transferred to a 384 reaction plate, centrifuged at 1000 rpm/min for 1 min, and incubated at 25° C. for 40 min. 8 μL of the Detection solution was transferred to a 384 reaction plate, centrifuged at 1000 rpm/min for 1 min, and incubated at 25° C. for 40 min. The RLU (Relative luminescence unit) signal was read using a BMG microplate reader, and the signal intensity was used to characterize the activity level of the kinase.
The kinase activity data was expressed by comparing the kinase activity of the test compound and the blank group (containing only DMSO), and the IC50 value was obtained by curve fitting using the Prism software (GraphPad7.0).
In general terms: ADP-Glo first removes unused ATP, then detects ADP through luciferase.

Like-named read-outs stand apart in the source and are kept apart here.

T1 sequence (Q92918 whole entry): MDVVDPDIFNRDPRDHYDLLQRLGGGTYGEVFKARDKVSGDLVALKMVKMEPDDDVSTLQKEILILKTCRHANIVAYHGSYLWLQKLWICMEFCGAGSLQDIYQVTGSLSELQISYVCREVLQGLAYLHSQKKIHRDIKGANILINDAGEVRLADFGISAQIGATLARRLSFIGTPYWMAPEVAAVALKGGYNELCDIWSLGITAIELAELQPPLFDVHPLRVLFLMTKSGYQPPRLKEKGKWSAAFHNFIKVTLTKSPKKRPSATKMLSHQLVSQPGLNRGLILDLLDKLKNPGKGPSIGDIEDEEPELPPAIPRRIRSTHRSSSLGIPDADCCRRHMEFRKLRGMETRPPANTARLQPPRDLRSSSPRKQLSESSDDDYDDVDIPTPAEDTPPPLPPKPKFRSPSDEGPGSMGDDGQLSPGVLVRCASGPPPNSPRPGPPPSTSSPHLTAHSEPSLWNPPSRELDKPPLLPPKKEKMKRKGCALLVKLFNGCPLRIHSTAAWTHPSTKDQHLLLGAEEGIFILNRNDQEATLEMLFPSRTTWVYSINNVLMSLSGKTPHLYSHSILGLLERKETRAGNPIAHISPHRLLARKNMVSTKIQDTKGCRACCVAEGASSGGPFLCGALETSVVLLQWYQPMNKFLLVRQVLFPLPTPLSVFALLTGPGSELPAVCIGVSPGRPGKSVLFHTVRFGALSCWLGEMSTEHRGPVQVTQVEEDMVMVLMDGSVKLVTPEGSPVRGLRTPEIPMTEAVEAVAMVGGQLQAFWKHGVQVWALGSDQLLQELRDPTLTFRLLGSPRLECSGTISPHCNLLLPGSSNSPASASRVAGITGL

Broadly, the DC50 is the midpoint of the concentration-degradation curve. One may read the Dmax as the greatest extent of degradation seen. What is called clearance is the rate of elimination divided by the concentration. One may read the half-life as the time in which the quantity being followed falls by half. By AUC is commonly meant concentration integrated over time. What is called bioavailability is the share of a dose that reaches the circulation, judged against a reference dose that is usually intravenous. For orientation: Cmax means the peak of the concentration-time curve. As a reminder, the EC50 is the midpoint of the concentration-response curve. On to `[2H]C([2H])([2H])n1cc(-c2c[nH]c3ncc(-c4ccc(N5CCC(CC6CCN(C(=O)c7ccc(Cl)c(N8CCC(=O)NC8=O)c7)CC6)CC5)nc4)nc23)cn1` [Compound C160], for which, on human HPK1 [1], the DC50 was 0.0126 µM and the Dmax stood at 88.8%. In series [2] (iv 2 mg/kg), the clearance was 10.7 mL/min/kg, the half-life was 1.25 h, the AUC is 5330 ng·h/mL and the Vz turned out to be 602. In addition, in series [2] (po 10 mg/kg), the half-life was 3.19 h, the AUC is 7960 ng·h/mL and the Cmax came to 2460 ng/mL. In series [2], this compound had a bioavailability of 29.6%. Besides, the midpoint of the response in series [3], the EC50, lay at 0.0455 µM.
The term IC50 denotes the concentration needed to halve the response being measured. Consider `CCN1CCC(n2cc(-c3c[nH]c4ncc(-c5ccc(N6CCC(CC7CCN(C(=O)c8ccc(Cl)c(N9CCC(=O)NC9=O)c8)CC7)CC6)nc5)nc34)cn2)CC1` [Compound C024], for which, on human HPK1 [1], the DC50 was found to be 0.0021 µM and the Dmax stood at 77%. The midpoint of inhibition on human HPK1 [4], the IC50, lay at 0.0023 µM. This compound had an EC50 in series [3] of 0.196 µM.
As to `CCN1CCC(n2cc(-c3c[nH]c4ncc(-c5cnc(OCC(=O)Nc6ccc(NC7CCC(=O)NC7=O)cc6)c(C)c5)nc34)cn2)CC1` (centres unmarked) [Compound C006], inhibition against human HPK1 [4] was half-maximal at 0.0032 µM (IC50). It took 0.179 µM to reach a half-maximal effect in series [3] (EC50).
Take `CCN1CCC(n2cc(-c3c[nH]c4ncc(-c5cnc(OCCNC(=O)c6ccc(Cl)c(N7CCC(=O)NC7=O)c6)c(C)c5)nc34)cn2)CC1` [Compound C022]: at human HPK1 [1], it took 0.055 µM to reach half-maximal degradation (DC50) and the Dmax was 86%. At human HPK1 [4], this compound yielded an IC50 of 0.0014 µM. Besides, the EC50 in series [3] was found to be 0.0956 µM.
At human HPK1 [1], `CCn1cc(-c2c[nH]c3ncc(-c4ccc(N5CCC(CC6CCN(C(=O)c7ccc(Cl)c(N8CCC(=O)NC8=O)c7)CC6)CC5)nc4)nc23)cn1` [Compound C162] registered a DC50 of 0.0292 µM and a Dmax of 86.5%. Moreover, in series [2] (iv 2 mg/kg), the clearance is 12.6 mL/min/kg, the half-life is 0.7 h, the AUC worked out at 2640 ng·h/mL and the Vz amounted to 763. Further, in series [2] (po 10 mg/kg), the half-life was 1.66 h, the AUC turned out to be 3690 ng·h/mL and the Cmax came out at 1370 ng/mL. In addition, in series [2], the bioavailability worked out at 28%. The compound also returned an EC50 in series [3] of 0.0273 µM.
`CCN1CCC(n2cc(-c3c[nH]c4ncc(-c5cnc(N6CCN(C7CCC(NC(=O)c8ccc(Cl)c(N9CCC(=O)NC9=O)c8)CC7)CC6)c(C)c5)nc34)cn2)CC1` (centres unmarked) [Compound C018]: the IC50 at human HPK1 [4] worked out at 0.0018 µM. In series [3], this compound gave an EC50 of 0.102 µM.
For the compound `CCN1CCC(n2cc(-c3c[nH]c4ncc(-c5ccc(N6CCN(C7CCC(NC(=O)c8ccc(Cl)c(N9CCC(=O)NC9=O)c8)CC7)CC6)c(C)c5)nc34)cn2)CC1` (centres unmarked) [Compound C021], the IC50 against human HPK1 [4] amounted to 0.0005 µM. Also, it took 0.0379 µM to reach a half-maximal effect in series [3] (EC50).
For `CCN1CCC(n2cc(-c3c[nH]c4ncc(-c5ccc(N6CCC(CC7CCN(C(=O)c8ccc(Cl)c(N9CCC(=O)NC9=O)c8)CC7)CC6)c(F)c5)nc34)cn2)CC1` [Compound C135], on human HPK1 [1], half-maximal degradation (DC50) was put at 0.176 µM and the Dmax came to 63%. The EC50 in series [3] was 0.0441 µM.
As to `CCN1CCC(n2cc(-c3c[nH]c4ncc(-c5cnc(N6CCN(CC7CCN(C(=O)c8ccc(Cl)c(N9CCC(=O)NC9=O)c8)CC7)CC6)c(C)c5)nc34)cn2)CC1` [Compound C003], the IC50 on human HPK1 [4] was found to be 0.0036 µM. The compound further returned an EC50 in series [3] of 0.111 µM.
At human HPK1 [1], `CCN1CCC(n2cc(-c3c[nH]c4ncc(-c5ccc(N6CCC(OC7CCN(C(=O)c8ccc(Cl)c(N9CCC(=O)NC9=O)c8)CC7)CC6)cc5)nc34)cn2)CC1` [Compound C131] showed a DC50 of 0.386 µM and a Dmax of 52%. The response in series [3] was half-maximal at 0.0417 µM (EC50).
At human HPK1 [1], `O=C1CCN(c2cc(C(=O)N3CCC(CC4CCN(c5ccc(-c6cnc7[nH]cc(-c8cnn(C9CC9)c8)c7n6)cn5)CC4)CC3)ccc2Cl)C(=O)N1` [Compound C170] displayed a DC50 of 0.0522 µM and a Dmax of 87.1%. In series [2] (iv 2 mg/kg), the clearance is 6.9 mL/min/kg, the half-life is 0.7 h, the AUC amounted to 4830 ng·h/mL and the Vz is 1329. In series [2] (po 10 mg/kg), the half-life was 4.22 h, the AUC worked out at 6670 ng·h/mL and the Cmax worked out at 1390 ng/mL. This compound also showed a bioavailability in series [2] of 27.6%. This compound returned an EC50 in series [3] of 0.0238 µM.
On human HPK1 [1], `C/C(=C(Cl)\C=C/CC(=O)N1CCC(CC2CCN(c3ccc(-c4cnc5[nH]cc(-c6cnn(C)c6)c5n4)cn3)CC2)CC1)N1CCC(=O)NC1=O` [Compound C110] yielded a DC50 of 0.00935 µM and a Dmax of 93%. Further, in series [2] (iv 2 mg/kg), the clearance was 8.27 mL/min/kg, the half-life was 0.98 h, the AUC is 4030 ng·h/mL and the Vz was found to be 701.3. Besides, in series [2] (po 10 mg/kg), the half-life is 3.35 h, the AUC was 2210 ng·h/mL and the Cmax is 840 ng/mL. Also, the bioavailability in series [2] came out at 17.7%. Besides, it took 0.0556 µM to reach a half-maximal effect in series [3] (EC50).
`CCN1CCC(n2cc(-c3c[nH]c4ncc(-c5cnc(N6CCN(C7CCC(NC(=O)c8cccc(N9CCC(=O)NC9=O)c8)CC7)CC6)c(C)c5)nc34)cn2)CC1` (centres unmarked) [Compound C017]: inhibition on human HPK1 [4] was half-maximal at 0.0009 µM (IC50). In addition, the EC50 in series [3] was found to be 0.324 µM.

(Values after patent US20260116884A1, “PROTAC CHIMERIC COMPOUND, PREPARATION METHOD THEREFOR AND USE THEREOF” (HANGZHOU ZHONGMEIHUADONG PHARMACEUTICAL CO., LTD., priority 2022, published 2026).)
